Consider three compounds from US6809065B2, “Herbicide containing substituted pyrazole derivative as active ingredient” (SDS Biotech K.K., priority 2001, dated 2004).

Series [1] has as its system Chenopodium album. Kind of series: Upland field foliage treatment (Test Example 1). Type of series: in vivo. The conditions noted are these: foliage treatment 14th day after sowing, wettable powder, 1 kg active ingredient per hectare, evaluated 21st day after application. The source says:
(§1) In the above evaluation criteria, the term “herbicidal effect” means evaluation to the objective weeds, and a higher index of the evaluation criteria means higher herbicidal effect on the objective weeds. On the other hand, a lower index of the evaluation criteria for the crops means higher safety to the crops. A plastic pot of 130 cm^2 was filled with upland soil. Then, seeds of weeds, namely, Setaria viridis, Digitaria adscendens, Chenopodium album and Stellaria media, and seeds of crops, namely, soybean (Glycine max) and wheat (Triticum aestivum), were sowed and covered with soil of about 1 cm thick. On the 14th day after the sowing, a wettable powder composition was prepared in accordance with Formulation Example 1, diluted with water in such an amount that the amount of the active ingredient became 1 kg per hectare, and then uniformly applied to the plant leaf surfaces. On the 21st day after the application, observation and evaluation were carried out according to the aforesaid criteria.

Series [2] relates to Digitaria adscendens. Kind of series: Upland field foliage treatment (Test Example 1). Type of series: in vivo. The conditions noted are these: foliage treatment 14th day after sowing, wettable powder, 1 kg active ingredient per hectare, evaluated 21st day after application.
Text: as §1

The test system of series [3] is Setaria viridis. Kind of series: Upland field foliage treatment (Test Example 1). The conditions noted are these: foliage treatment 14th day after sowing, wettable powder, 1 kg active ingredient per hectare, evaluated 21st day after application. Type of series: in vivo.
Text: as §1

The test system of series [4] is Stellaria media. Kind of series: Upland field foliage treatment (Test Example 1). Type of series: in vivo. The following applies: foliage treatment 14th day after sowing, wettable powder, 1 kg active ingredient per hectare, evaluated 21st day after application.
Text: as §1

For series [5], the system named is soybean (Glycine max). Briefly: Upland field foliage treatment (Test Example 1), crop. The series is classed as in vivo. The following applies: foliage treatment 14th day after sowing, 1 kg active ingredient per hectare, evaluated 21st day, lower index = higher safety.
Text: as §1

Series [6] relates to wheat (Triticum aestivum). The description is as above. The series is classed as in vivo. The following applies: foliage treatment 14th day after sowing, 1 kg active ingredient per hectare, evaluated 21st day, lower index = higher safety.
Text: as §1

For series [7], the system named is Chenopodium album. Kind of series: Upland soil treatment (Test Example 2). The series is classed as in vivo. The following applies: soil surface treatment next day after sowing, wettable powder, 1 kg active ingredient per hectare, evaluated 21st day after application. The source says: (§2) In the above evaluation criteria, the term “herbicidal effect” means evaluation to the objective weeds, and a higher index of the evaluation criteria means higher herbicidal effect on the objective weeds. On the other hand, a lower index of the evaluation criteria for the crops means higher safety to the crops. A plastic pot of 130 cm^2 was filled with upland soil. Then, seeds of weeds, namely, Setaria viridis, Digitaria adscendens, Chenopodium album and Stellaria media, and seeds of crops, namely, soybean (Glycine max) and wheat (Triticum aestivum), were sowed and covered with soil of about 1 cm thick. On the next day after the sowing, a wettable powder composition was prepared in accordance with Formulation Example 1, diluted with water in such an amount that the amount of the active ingredient became 1 kg per hectare, and then uniformly applied to the soil surface. On the 21st day after the application, observation and evaluation were carried out according to the aforesaid criteria.

The subject of series [8] is Digitaria adscendens. Briefly: Upland soil treatment (Test Example 2). The conditions noted are these: soil surface treatment next day after sowing, wettable powder, 1 kg active ingredient per hectare, evaluated 21st day after application. Type of series: in vivo.
Text: as §2

In series [9] the test system is Setaria viridis. Kind of series: Upland soil treatment (Test Example 2). Type of series: in vivo. The following applies: soil surface treatment next day after sowing, wettable powder, 1 kg active ingredient per hectare, evaluated 21st day after application.
Text: as §2

For series [10], the system named is Stellaria media. Kind of series: Upland soil treatment (Test Example 2). Type of series: in vivo. The conditions noted are these: soil surface treatment next day after sowing, wettable powder, 1 kg active ingredient per hectare, evaluated 21st day after application.
Text: as §2

In series [11] the test system is soybean (Glycine max). Kind of series: Upland soil treatment (Test Example 2), crop. The series is classed as in vivo. The conditions noted are these: soil surface treatment next day after sowing, 1 kg active ingredient per hectare, evaluated 21st day, lower index = higher safety.
Text: as §2

Series [12] relates to wheat (Triticum aestivum). Briefly: Upland soil treatment (Test Example 2), crop. The conditions noted are these: soil surface treatment next day after sowing, 1 kg active ingredient per hectare, evaluated 21st day, lower index = higher safety. The series is classed as in vivo.
Text: as §2

The subject of series [13] is Echinochloa spp. Kind of series: Paddy field treatment (Test Example 3). Type of series: in vivo, Echinochloa crusgalli. The following applies: paddy pot, submerged 4 cm, dropped on water surface 10th day after transplantation, 1 kg active ingredient per hectare, evaluated 21st day. The protocol:
(§3) In the above evaluation criteria, the term “herbicidal effect” means evaluation to the objective weeds, and a higher index of the evaluation criteria means higher herbicidal effect on the objective weeds. On the other hand, a lower index of the evaluation criteria for the crops means higher safety to the crops. A plastic pot of 130 cm^2 was filled with paddy soil, and soil puddling was carried out to adjust the submerged depth to 4 cm. Then, seeds of Echinochloa crusgalli, Monochoria vaginalis, Ammannia multiflora and Scirpus juncoides were sowed, and rice (Oryza […], variety: Koshihikari) of two-leaf period was transplanted by 2 rice plants of 1 stub per pot at a depth of 3 cm. On the 10th day after the transplantation, a wettable powder composition was prepared in accordance with Formulation Example 1, diluted with water in such an amount that the amount of the active ingredient became 1 kg per hectare, and then dropped to diffuse on the water surface. On the 21st day after the dropping, observation and evaluation were carried out according to the aforesaid criteria.

Series [14] concerns Ammannia multiflora. Briefly: Paddy field treatment (Test Example 3). The series is classed as in vivo. The following applies: paddy pot, submerged 4 cm, dropped on water surface 10th day after transplantation, 1 kg active ingredient per hectare, evaluated 21st day. As for the experimental part: as §3
Series [15] relates to Monochoria vaginalis. Kind of series: Paddy field treatment (Test Example 3). Type of series: in vivo. The following applies: paddy pot, submerged 4 cm, dropped on water surface 10th day after transplantation, 1 kg active ingredient per hectare, evaluated 21st day. The protocol: as §3
The test system of series [16] is Scirpus juncoides. Kind of series: Paddy field treatment (Test Example 3). The series is classed as in vivo. The conditions noted are these: paddy pot, submerged 4 cm, dropped on water surface 10th day after transplantation, 1 kg active ingredient per hectare, evaluated 21st day. The protocol: as §3
The subject of series [17] is rice (Oryza sative, variety: Koshihikari). Kind of series: Paddy field treatment (Test Example 3), crop. The series is classed as in vivo, Oryza sativa. The following applies: transplanted rice two-leaf period, water surface treatment 10th day after transplantation, 1 kg active ingredient per hectare, evaluated 21st day, lower index = higher safety. The protocol:
as §3

`COC=C(Cn1nc(-c2ccc(Cl)c(Cl)c2)c(Cl)c1C)C(=O)OC` [Compound 24]: the “Herbicidal activity Chenopodium album” value in series [1] was 4 (herbicidal effect of not less than 70% by weight and less than 90% by weight); in series [7], 4 (herbicidal effect of not less than 70% by weight and less than 90% by weight). Besides, the “Herbicidal activity Digitaria adscendens” value in series [2] is 4 (herbicidal effect of not less than 70% by weight and less than 90% by weight); in [8], 4 (herbicidal effect of not less than 70% by weight and less than 90% by weight). Moreover, the “Herbicidal activity Setaria viridis” value in series [3] is 4 (herbicidal effect of not less than 70% by weight and less than 90% by weight); in series [9], 4 (herbicidal effect of not less than 70% by weight and less than 90% by weight). Besides, the “Herbicidal activity Stellaria media” value in [4] is 4 (herbicidal effect of not less than 70% by weight and less than 90% by weight); in series [10], 4 (herbicidal effect of not less than 70% by weight and less than 90% by weight). For the same compound, the “Herbicidal activity Glycine max” value in series [5] is 0 (herbicidal effect of not less than 0% by weight and less than 10% by weight); in series [11], 0 (herbicidal effect of not less than 0% by weight and less than 10% by weight). For the same compound, the “Herbicidal activity Triticum aestivum” value is 0 (herbicidal effect of not less than 0% by weight and less than 10% by weight) in series [6]; 0 (herbicidal effect of not less than 0% by weight and less than 10% by weight) in series [12]. Moreover, the “Herbicidal activity Echinochloa spp.” value in series [13] was 4 (herbicidal effect of not less than 70% by weight and less than 90% by weight). Moreover, the “Herbicidal activity Ammannia multiflora” value in [14] was 3 (herbicidal effect of not less than 50% by weight and less than 70% by weight). Besides, in [15], the “Herbicidal activity Monochoria vaginalis” value was 3 (herbicidal effect of not less than 50% by weight and less than 70% by weight). In addition, the “Herbicidal activity Scirpus juncoides” value in [16] was 3 (herbicidal effect of not less than 50% by weight and less than 70% by weight). Moreover, in series [17], the “Herbicidal activity Oryza sativa” value is 0 (herbicidal effect of not less than 0% by weight and less than 10% by weight).
On to `COC=C(Cn1ccc(-c2ccccc2)n1)C(=O)OC` [Compound 1], for which the “Herbicidal activity Chenopodium album” value was 5 (herbicidal effect of not less than 90% by weight) in series [1]; 4 (herbicidal effect of not less than 70% by weight and less than 90% by weight) in series [7]. Also, the “Herbicidal activity Digitaria adscendens” value in series [2] and in [8] was 5 (herbicidal effect of not less than 90% by weight) throughout. Moreover, the “Herbicidal activity Setaria viridis” value in series [3] is 5 (herbicidal effect of not less than 90% by weight); in [9], 4 (herbicidal effect of not less than 70% by weight and less than 90% by weight). Further, the “Herbicidal activity Stellaria media” value in series [4] was 5 (herbicidal effect of not less than 90% by weight); in series [10] it was 4 (herbicidal effect of not less than 70% by weight and less than 90% by weight). Also, the “Herbicidal activity Glycine max” value in series [5] was 1 (herbicidal effect of not less than 10% by weight and less than 30% by weight); in series [11], 0 (herbicidal effect of not less than 0% by weight and less than 10% by weight). Besides, the “Herbicidal activity Triticum aestivum” value in series [6] is 1 (herbicidal effect of not less than 10% by weight and less than 30% by weight); in [12], 0 (herbicidal effect of not less than 0% by weight and less than 10% by weight). Further, the “Herbicidal activity Echinochloa spp.” value in series [13] is 5 (herbicidal effect of not less than 90% by weight). For the same compound, the “Herbicidal activity Ammannia multiflora” value in series [14] is 4 (herbicidal effect of not less than 70% by weight and less than 90% by weight). In addition, the “Herbicidal activity Monochoria vaginalis” value in series [15] is on record as 5 (herbicidal effect of not less than 90% by weight). The “Herbicidal activity Scirpus juncoides” value in series [16] was 5 (herbicidal effect of not less than 90% by weight). In [17], the “Herbicidal activity Oryza sativa” value is 1 (herbicidal effect of not less than 10% by weight and less than 30% by weight).
Turning to `COC=C(Cn1nc(-c2cc(C)ccc2C)c(Cl)c1C)C(=O)OC` [Compound 19], the “Herbicidal activity Chenopodium album” value in [1] is 5 (herbicidal effect of not less than 90% by weight); in series [7], 4 (herbicidal effect of not less than 70% by weight and less than 90% by weight). Besides, the “Herbicidal activity Digitaria adscendens” value in series [2] and in series [8] was 5 (herbicidal effect of not less than 90% by weight) throughout. In addition, the “Herbicidal activity Setaria viridis” value in [3] is 4 (herbicidal effect of not less than 70% by weight and less than 90% by weight); in series [9], 4 (herbicidal effect of not less than 70% by weight and less than 90% by weight). Further, the “Herbicidal activity Stellaria media” value in series [4] was 4 (herbicidal effect of not less than 70% by weight and less than 90% by weight); in [10], 5 (herbicidal effect of not less than 90% by weight). For the same compound, the “Herbicidal activity Glycine max” value in series [5] was 0 (herbicidal effect of not less than 0% by weight and less than 10% by weight); in [11], 0 (herbicidal effect of not less than 0% by weight and less than 10% by weight). Also, the “Herbicidal activity Triticum aestivum” value is 0 (herbicidal effect of not less than 0% by weight and less than 10% by weight) in [6]; 0 (herbicidal effect of not less than 0% by weight and less than 10% by weight) in series [12]. Moreover, the “Herbicidal activity Echinochloa spp.” value in series [13] is on record as 5 (herbicidal effect of not less than 90% by weight). Besides, in series [14], the “Herbicidal activity Ammannia multiflora” value is given as 5 (herbicidal effect of not less than 90% by weight). Besides, the “Herbicidal activity Monochoria vaginalis” value in series [15] is reported as 5 (herbicidal effect of not less than 90% by weight). Also, the “Herbicidal activity Scirpus juncoides” value in [16] is 5 (herbicidal effect of not less than 90% by weight). Further, the “Herbicidal activity Oryza sativa” value in series [17] was 1 (herbicidal effect of not less than 10% by weight and less than 30% by weight).
